Measurements taken from US20060046972A1, “Cytotoxic nucleoside analog compound 003 for treating cancer” (Parker Hughes Institute, priority 2004, published 2006).

Columns and labels:
[1] = tested on: PC-3 prostate cancer cells; assay: Confocal laser scanning microscopy of mitotic spindle, PC-3; format: cell-based, human; conditions: 100 μM
Experimental: Immunofluorenscence was used to examine the spindle features of human cancer cell lines treated with Compound 003 or 0.5% DMSO. Initially, cells at log phase were seeded onto sterile 22 mm coverslips in six -well culture plates. 24 hours later, the cells were treated with compound 003 for 2 hours at 37° C., 5% C02, fixed in methanol (−20° C. 15 min) followed by a 15 minute incubation with PBS +0.1.% Tx-100. The coverslips were incubated with antibodies raised against α-tubulin, γ-tubulin (Sigma Chemical Co., St Louis, Mo.) (40 min 37° C.), washed in PBS-Tx-100, and incubated with an appropriate secondary antibody conjugated to FITC (Jackson ImmunoResearch, Westgrove, Pa.). Cellular DNA was labeled with 5 μM TOTO3 (Molecular Probes, Eugene, Oreg.) for 20 minutes. Coverslips were immediately inverted onto slides in Vectashield (Vector Labs, Burlingame, Calif.) to prevent photobleaching, sealed with nail varnish and stored at −20° C. The slides were examined using a Bio-Rad MRC-1024 Laser Scanning Confocal Microscope equipped with a Kr/Ar laser (BioRad, Hercules, Calif.) mounted on a Nikon Eclipse E800 upright microscope with high numerical aperture objectives (Nikon, Melville, N.Y.). Digital data were processed using Lasersharp (BioRad) and Adobe Photoshop software (Adobe Systems, Mountain View, Calif.). […]

[2] = tested on: MMTV/Neu transgenic mice kept pregnant or lactating; assay: Lactation induced murine model of Her 2 positive breast cancer, MMTV/Neu transgenic mice; format: in vivo
Experimental: MMTV/Neu transgenic mice were treated with Compound 003 that was added to the daily food of the mice at an average daily dose level of 50 mg/kg/day for the duration of the experiment. Mice were screened for the tumor formation every other day. Tumor-free survival was analyzed using life table statistics as previously reported. The protective anti-cancer activity of Compound 003 was evaluated according to the rise of the survival rate and prolongation of the tumor-free survival of the experimental animals as compared with the control animals. Statistical Significance was determined using the Kaplan Meier Log-Rank test.
In the second experiment, in order to maintain the development of mammary gland and maximum expression of the MMTV-driven neu transgene, all female transgenic mice were kept either pregnant or lactating by continued housing with male FVB mice. Treatments commenced when female mice were 6-weeks of age. Vehicle-treated control mice (N=16) developed breast cancer faster than vehicle treated virgin transgenic mice with a median cancer-free survival time of 169.5 days (Mean=160.8±9.3 days). Compound 003 prolonged the median cancer-free survival from 169.5 days to 234 days (P=0.05). At 200 days, the cumulative proportion of vehicle-treated neu transgenic mice was only 38±12%, whereas at the same time 75±11% of Compound 003-treated neu transgenic mice were cancer-free (FIG. 9).

[3] = Pharmacokinetics in CD-1 mice after intravenous or oral Compound 003; format: in vivo
Experimental: Each plasma sample (200 μL) was mixed 1:4 with acetone (800 μL) and vortexed for at least 30 seconds. Following centrifugation, the supernatant was transferred into a clean tube and dried under nitrogen. A 50 μL solution of 50% methanol in 200 mM HCl was used to reconstitute the extraction residue, and 35 μL was subjected to analytical HPLC. The analytical column used was a 250×4 mm Lichrospher 100, RP-18 (5 μm) and the guard column was a 4×4 mm Lichrospher 100, RP-18 (5 μm). The mobile phase was degassed automatically by the electronic degasser system. The column was equilibrated and eluted under gradient conditions utilizing a flow rate of 1.0 ml/min at ambient temperature. The linear gradient mobile phase was: 0 minute, 100% 10 mM ammonium phosphate buffer (pH 3.7); 20 minutes, 20% acetonitrile, 80% ammonium phosphate buffer (pH 3.7); 20.1-50 minutes, 28% acetonitrile, 72% water (0.1% HAC). The wavelength of detection was set at 270 nm. Peak width, response time and slit werep, set at >0.03 minutes, 0.5 s and 8 nm, respectively.
Female CD-1 mice (6-8 weeks old) (Charles River, Wilmington, Mass.) were housed in a USDA-accredited animal care facility under standard environmental conditions (12-h light/12-h dark photoperiod, 22±1° C., 60±10% relative humidity). All rodents were housed in microisolator cages (Lab Products, Inc., N.J.) containing autoclaved bedding. Mice were allowed free access to autoclaved pellet food and tap water throughout the study. All animal studies are approved by the Parker Hughes Institute Animal Care and Use Committee, and all animal care procedures conformed to the principles outlined in the Guide for the Care and Use of Laboratory Animals (National Research Council;. National Academy Press, Washington D.C. 1996).
Compound 003 (200 mg/kg) dissolved in DMSO was administered intravenously via tail vein to non-fasted mice or orally via gavage to 12-h fasted mice. Four to six mice per time-point were used for pharmacokinetic studies. Blood samples (˜500 μL) were obtained from the ocular venous plexus by retro-orbital venipuncture at 0, 5, 10, 15, 30, 45 minutes, and 1 h, 1.5 h, 2 h, 4 h, 6 h and 8 h after oral administration. All collected blood-samples were heparinized and centrifuged at 7000×g for 5 minutes to separate the plasma fraction from the whole blood. The plasma samples were then processed immediately using the extraction procedure described above.
Pharmacokinetic modeling and parameter calculations were carried out using the WinNonlin Professional Version 3.0 (Pharsight, Inc., Mountain, Calif.) pharmacokinetics software (Chen, C. L., et al., (1999) Pharm Res. 16:117; Chen, C. L., et al., (1999) Pharm Res. 16:1003; Uckun, F. M., et al., (1999) Clin Cancer Res. 5:2954). An appropriate model was chosen on the basis of the lowest sum of weighted squared residuals, the lowest Schwartz Criterion (SC), the lowest Akaike's Information Criterion (AIC) value, the lowest standard errors of the fitted parameters, and the dispersion of the residuals. The elimination half-life was estimated by linear regression analysis of the terminal phase of the plasma concentration-time profile. The systemic clearance (CL) was determined by dividing the dose by the AUC.

COC(=O)C(C)NP(=O)(OCC1OC(n2cc(C)c(=O)[nH]c2=O)CC1N=[N+]=[N-])Oc1ccc(OC)cc1 (centres unmarked) [Compound 003, 3′-azidothymidine 5′-[p-methoxyphenylmethoxyalaninyl phosphate]]
mitotic spindle formation [1]: induced aberrant multipolar spindle formation | median cancer-free survival ([2]; 50 mg/kg/day in food, vehicle 169.5 days, P=0.05): 234 days | proportion of mice cancer-free ([2]; 50 mg/kg/day, at 200 days, vehicle 38±12%): 75±11% | in vivo transformation of parent compound ([3]; i.v. injection of 200 mg/kg): immediately transformed to Ala-AZT-MP and AZT | plasma concentration of parent compound ([3]; oral 200 mg/kg, below the detection limit): < 500 nM
